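Grown in 96-well plates, cells were treated for 48 hours with each compound at five concentrations. Insufficient inhibition: endpoint recorded as highest concentration tested. Definition used: TGI = concentration required for complete inhibition of growth.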
Legend:
Experiment in all cases: growth of human tumour cells (NCI), 48 h
786-0 renal = test system: 786-0 renal
A498 renal = test system: A498 renal
A549 NSCLC = test system: A549 NSCLC
ACHN renal = test system: ACHN renal
BT-549 breast = test system: BT-549 breast
CAKI-1 renal = test system: CAKI-1 renal
COLO 205 colon = test system: COLO 205 colon
DU-145 prostate = test system: DU-145 prostate
EKVX NSCLC = test system: EKVX NSCLC
HCC-2998 colon = test system: HCC-2998 colon
HCT-116 colon = test system: HCT-116 colon
HCT-15 colon = test system: HCT-15 colon
HL-60(TB) leukemia = test system: HL-60(TB) leukemia
HOP-62 NSCLC = test system: HOP-62 NSCLC
HOP-92 NSCLC = test system: HOP-92 NSCLC
HS 578T breast = test system: HS 578T breast
HT29 colon = test system: HT29 colon
IGROV1 ovarian = test system: IGROV1 ovarian
K-562 leukemia = test system: K-562 leukemia
KM12 colon = test system: KM12 colon
LOX IMVI melanoma = test system: LOX IMVI melanoma
M14 melanoma = test system: M14 melanoma
MALME-3M melanoma = test system: MALME-3M melanoma
MCF7 breast = test system: MCF7 breast
MDA-MB-231 breast = test system: MDA-MB-231 breast
MDA-MB-435 = test system: MDA-MB-435
MDA-N = test system: MDA-N
MOLT-4 leukemia = test system: MOLT-4 leukemia
NCI-H226 lung = test system: NCI-H226 lung
NCI-H23 lung = test system: NCI-H23 lung
NCI-H460 lung = test system: NCI-H460 lung
NCI-H522 lung = test system: NCI-H522 lung
NCI/ADR-RES ovarian = test system: NCI/ADR-RES ovarian
OVCAR-3 ovarian = test system: OVCAR-3 ovarian
OVCAR-4 ovarian = test system: OVCAR-4 ovarian
OVCAR-5 ovarian = test system: OVCAR-5 ovarian
OVCAR-8 ovarian = test system: OVCAR-8 ovarian
PC-3 prostate = test system: PC-3 prostate
RPMI-8226 leukemia = test system: RPMI-8226 leukemia
RXF 393 renal = test system: RXF 393 renal
SF-268 CNS = test system: SF-268 CNS
SF-295 CNS = test system: SF-295 CNS
SF-539 CNS = test system: SF-539 CNS
SK-MEL-2 melanoma = test system: SK-MEL-2 melanoma
SK-MEL-28 melanoma = test system: SK-MEL-28 melanoma
SK-MEL-5 melanoma = test system: SK-MEL-5 melanoma
SK-OV-3 ovarian = test system: SK-OV-3 ovarian
SN12C renal = test system: SN12C renal
SNB-19 CNS = test system: SNB-19 CNS
SNB-75 CNS = test system: SNB-75 CNS
SR leukemia = test system: SR leukemia
SW-620 colon = test system: SW-620 colon
T-47D breast = test system: T-47D breast
TK-10 renal = test system: TK-10 renal
U251 CNS = test system: U251 CNS
UACC-257 melanoma = test system: UACC-257 melanoma
UACC-62 melanoma = test system: UACC-62 melanoma
UO-31 renal = test system: UO-31 renal
CCRF-CEM leukemia = test system: CCRF-CEM leukemia

## C=C[C@]1(C)C[C@@H](OC(=O)CO)[C@@]2(C)[C@H](C)CC[C@]3(CCC(=O)[C@H]32)[C@@H](C)[C@@H]1O
786-0 renal
  TGI: > 100 µM
A498 renal
  TGI: > 78.2 µM
A549 NSCLC
  TGI: > 100 µM
ACHN renal
  TGI: > 100 µM
BT-549 breast
  TGI: > 100 µM
CAKI-1 renal
  TGI: > 100 µM
COLO 205 colon
  TGI: > 100 µM
DU-145 prostate
  TGI: > 100 µM
EKVX NSCLC
  TGI: > 100 µM
HCC-2998 colon
  TGI: > 100 µM
HCT-116 colon
  TGI: > 100 µM
HCT-15 colon
  TGI: > 100 µM
HL-60(TB) leukemia
  TGI: > 100 µM
HOP-62 NSCLC
  TGI: > 100 µM
HOP-92 NSCLC
  TGI: > 100 µM
HS 578T breast
  TGI: 97 µM
HT29 colon
  TGI: > 100 µM
IGROV1 ovarian
  TGI: > 100 µM
K-562 leukemia
  TGI: > 75.1 µM
KM12 colon
  TGI: > 100 µM
LOX IMVI melanoma
  TGI: > 31.6 µM
M14 melanoma
  TGI: > 100 µM
MALME-3M melanoma
  TGI: > 100 µM
MCF7 breast
  TGI: > 100 µM
MDA-MB-231 breast
  TGI: > 100 µM
MDA-MB-435
  TGI: > 100 µM
MDA-N
  TGI: > 100 µM
MOLT-4 leukemia
  TGI: > 75.5 µM
NCI-H226 lung
  TGI: > 100 µM
NCI-H23 lung
  TGI: > 100 µM
NCI-H460 lung
  TGI: > 100 µM
NCI-H522 lung
  TGI: > 100 µM
NCI/ADR-RES ovarian
  TGI: > 100 µM
OVCAR-3 ovarian
  TGI: > 100 µM
OVCAR-4 ovarian
  TGI: > 100 µM
OVCAR-5 ovarian
  TGI: > 100 µM
OVCAR-8 ovarian
  TGI: > 100 µM
PC-3 prostate
  TGI: > 100 µM
RPMI-8226 leukemia
  TGI: > 100 µM
RXF 393 renal
  TGI: > 100 µM
SF-268 CNS
  TGI: > 100 µM
SF-295 CNS
  TGI: > 100 µM
SF-539 CNS
  TGI: > 100 µM
SK-MEL-2 melanoma
  TGI: > 100 µM
SK-MEL-28 melanoma
  TGI: > 100 µM
SK-MEL-5 melanoma
  TGI: > 100 µM
SK-OV-3 ovarian
  TGI: > 100 µM
SN12C renal
  TGI: > 100 µM
SNB-19 CNS
  TGI: > 100 µM
SNB-75 CNS
  TGI: > 100 µM
SR leukemia
  TGI: > 74.2 µM
SW-620 colon
  TGI: > 100 µM
T-47D breast
  TGI: > 100 µM
TK-10 renal
  TGI: > 100 µM
U251 CNS
  TGI: > 100 µM
UACC-257 melanoma
  TGI: > 100 µM
UACC-62 melanoma
  TGI: > 50.3 µM
UO-31 renal
  TGI: > 100 µM

## COc1ccc2[nH]c(Cl)c(/C=C3/C(=O)N(c4ccccc4)c4ccccc43)c2c1
786-0 renal
  TGI: 20.9 µM
A498 renal
  TGI: > 100 µM
A549 NSCLC
  TGI: > 100 µM
ACHN renal
  TGI: > 100 µM
BT-549 breast
  TGI: 11.3 µM
CAKI-1 renal
  TGI: > 100 µM
CCRF-CEM leukemia
  TGI: 63.4 µM
COLO 205 colon
  TGI: 5.89 µM
DU-145 prostate
  TGI: 76.4 µM
EKVX NSCLC
  TGI: 69.5 µM
HCC-2998 colon
  TGI: 17.6 µM
HCT-116 colon
  TGI: 18.6 µM
HCT-15 colon
  TGI: 13 µM
HL-60(TB) leukemia
  TGI: 9.02 µM
HOP-62 NSCLC
  TGI: 23.4 µM
HOP-92 NSCLC
  TGI: > 100 µM
HS 578T breast
  TGI: 39.6 µM
HT29 colon
  TGI: 45.8 µM
IGROV1 ovarian
  TGI: > 100 µM
K-562 leukemia
  TGI: 26.4 µM
KM12 colon
  TGI: > 100 µM
LOX IMVI melanoma
  TGI: 14.3 µM
M14 melanoma
  TGI: 12.9 µM
MALME-3M melanoma
  TGI: 36.2 µM
MCF7 breast
  TGI: > 100 µM
MDA-MB-231 breast
  TGI: 65.3 µM
MDA-MB-435
  TGI: 4.33 µM
MDA-N
  TGI: 3.53 µM
MOLT-4 leukemia
  TGI: > 100 µM
NCI-H23 lung
  TGI: 19.5 µM
NCI-H460 lung
  TGI: 16.3 µM
NCI-H522 lung
  TGI: 17.9 µM
NCI/ADR-RES ovarian
  TGI: 6.45 µM
OVCAR-3 ovarian
  TGI: 7.71 µM
OVCAR-5 ovarian
  TGI: 94.8 µM
OVCAR-8 ovarian
  TGI: 28.8 µM
PC-3 prostate
  TGI: > 100 µM
RPMI-8226 leukemia
  TGI: 20.4 µM
RXF 393 renal
  TGI: 47.3 µM
SF-268 CNS
  TGI: 23.3 µM
SF-295 CNS
  TGI: 7.33 µM
SF-539 CNS
  TGI: 6.63 µM
SK-MEL-2 melanoma
  TGI: 10.9 µM
SK-MEL-28 melanoma
  TGI: 52 µM
SK-MEL-5 melanoma
  TGI: 5.97 µM
SK-OV-3 ovarian
  TGI: 10.8 µM
SN12C renal
  TGI: 18.9 µM
SNB-19 CNS
  TGI: 88.5 µM
SNB-75 CNS
  TGI: 49.1 µM
SR leukemia
  TGI: 11.1 µM
SW-620 colon
  TGI: 24.6 µM
T-47D breast
  TGI: 21.4 µM
TK-10 renal
  TGI: 36.5 µM
U251 CNS
  TGI: 30.7 µM
UACC-257 melanoma
  TGI: 24.3 µM
UACC-62 melanoma
  TGI: 43.4 µM
UO-31 renal
  TGI: 93.1 µM

## COc1ccc(N2CCOCC2)cc1
786-0 renal
  TGI: > 100 µM
A498 renal
  TGI: > 100 µM
A549 NSCLC
  TGI: > 100 µM
ACHN renal
  TGI: > 100 µM
BT-549 breast
  TGI: > 100 µM
CAKI-1 renal
  TGI: > 100 µM
CCRF-CEM leukemia
  TGI: > 100 µM
COLO 205 colon
  TGI: > 100 µM
DU-145 prostate
  TGI: > 100 µM
EKVX NSCLC
  TGI: > 100 µM
HCC-2998 colon
  TGI: > 100 µM
HCT-116 colon
  TGI: > 100 µM
HCT-15 colon
  TGI: > 100 µM
HL-60(TB) leukemia
  TGI: > 100 µM
HOP-62 NSCLC
  TGI: > 100 µM
HOP-92 NSCLC
  TGI: > 100 µM
HS 578T breast
  TGI: > 100 µM
HT29 colon
  TGI: > 100 µM
IGROV1 ovarian
  TGI: > 100 µM
K-562 leukemia
  TGI: > 100 µM
KM12 colon
  TGI: > 100 µM
M14 melanoma
  TGI: > 100 µM
MALME-3M melanoma
  TGI: > 100 µM
MCF7 breast
  TGI: > 100 µM
MDA-MB-231 breast
  TGI: > 100 µM
MDA-MB-435
  TGI: > 100 µM
MDA-N
  TGI: > 100 µM
MOLT-4 leukemia
  TGI: > 100 µM
NCI-H226 lung
  TGI: > 100 µM
NCI-H23 lung
  TGI: > 100 µM
NCI-H460 lung
  TGI: > 100 µM
NCI-H522 lung
  TGI: > 100 µM
NCI/ADR-RES ovarian
  TGI: > 100 µM
OVCAR-3 ovarian
  TGI: > 100 µM
OVCAR-4 ovarian
  TGI: > 100 µM
OVCAR-5 ovarian
  TGI: > 100 µM
OVCAR-8 ovarian
  TGI: > 100 µM
PC-3 prostate
  TGI: > 100 µM
RPMI-8226 leukemia
  TGI: > 100 µM
RXF 393 renal
  TGI: > 100 µM
SF-268 CNS
  TGI: > 100 µM
SF-295 CNS
  TGI: > 100 µM
SF-539 CNS
  TGI: > 100 µM
SK-MEL-2 melanoma
  TGI: > 100 µM
SK-MEL-28 melanoma
  TGI: > 100 µM
SK-MEL-5 melanoma
  TGI: > 100 µM
SK-OV-3 ovarian
  TGI: > 100 µM
SN12C renal
  TGI: > 100 µM
SNB-19 CNS
  TGI: > 100 µM
SNB-75 CNS
  TGI: > 100 µM
SR leukemia
  TGI: > 100 µM
SW-620 colon
  TGI: > 100 µM
T-47D breast
  TGI: > 100 µM
TK-10 renal
  TGI: > 100 µM
U251 CNS
  TGI: > 100 µM
UACC-257 melanoma
  TGI: > 100 µM
UACC-62 melanoma
  TGI: > 100 µM
UO-31 renal
  TGI: > 100 µM

From PubChem BioAssay (NCI)
